Source: patent US9745613B2, “Compounds, substrates and methods related to histone deacetylases” (The Broad Institute, Inc., priority 2014, dated 2017)

Assays:
MCF7 cells [1] = assay: SILAC-based global acetylation profiling; type: cell-based; settings: compared to DMSO or BRD3811
Source text: Using these chemical tools, we compared the changes in global acetylation in a representative cell line known to express HDAC8 (i.e. MCF7) after treatment with each compound using Stable Isotope Labeling of Amino Acids in Cell Culture (SILAC)-based quantitative mass spectrometry (MS). (Ververis, K., Karagiannis, T. C. (2012) An atlas of histone deacetylase expression in breast cancer: fluorescence methodology for comparative semi-quantitative analysis. Am. J. Transl. Res. 4, 24-43). […] Global acetylation profiling was completed by digesting cellular proteins with trypsin and enriching the acetylated peptides by immunoprecipitation using an antibody specific for acetylated lysine residues.
MCF7 cells were grown and expanded from the same frozen vial stock, followed by differentially labeling with non-radioactive stable isotopic amino acids by growing in light, medium, and heavy SILAC media (see below for recipe), respectively (Ong, S. E., et al. Mol. Cell Proteomics 5, 376-386 (2002)). […]
EDTA, 2 μg/ml aprotinin (Sigma-Aldrich), 10 μg/ml leupeptin (Roche Applied Science), 1 mM phenylmethylsulfonyl fluoride (PMSF), and 5 mM sodium butyrate (Sigma-Aldrich). […] Protein concentrations were measured using a bicinchoninic acid (BCA) protein assay. […]

p21 = assay: Western blotting of p21 protein; type: cell-based; settings: MCF7 cells, 10 μM, 48 h
Experimental: MCF7 cells were treated with compounds for 48 h, at which time, lysates were collected using RIPA buffer with added protease (Roche) and phosphatase (Roche) inhibitors. Electrophoresis was performed using NuPage 4-12% Bis-Tris gels (Invitrogen). Proteins were transferred to a nitrocellulose membrane and probed using antibodies for p21 (Cell Signaling) and GAPDH (Cell Signalling). Chemiluminescence was induced by subsequent incubation with HRP-linked secondary antibodies (GE Healthcare UK Ltd.) and treatment of the membrane with the appropriate ECL solutions (Thermo Scientific). Visualization was accomplished using a ChemiDoc MP System (Bio-Rad), and the raw data files were converted to jpegs using ImageJ (NIH).

[2] = tested on: p21 (CDKN1A) overexpression; assay: Connectivity map query analysis of L1000 signatures across cell lines; type: cell-based, human; settings: across multiple cell lines, relative to 430 overexpressed genes
Source text: To assess whether our findings extend beyond the context of a single cell type and to incorporate into our analysis orthogonal biological perturbations, we expanded our gene expression studies using L1000 into several cell lines representative of distinct tissue types: PC3 (prostate), HEPG2 (liver), HCC515 (lung), HAlE (kidney), A375 (skin), A549 (lung), HT29 (colon). […] These candidate substrates of HDAC8 may provide a more targeted approach toward specific cancers (or other diseases) driven by the dysregulation of proteins and/or genes within this HDAC8 network. […] Efforts toward defining the functional consequences of the change in acetylation of these proteins by HDAC8 are ongoing.
The raw expression data are log 2-scaled, quantile normalized, and z-scored, such that a differential expression value is achieved for each gene in each well. In the standard L1000 protocol, each well corresponds to a different perturbagen and these differential expression values are collapsed across replicate wells to yield a differential expression signature for each perturbagen. […] To assess this, we did a meta-analysis of the CMap query results (i.e., lists of perturbations ordered by similarity to an input gene expression signature). […] We performed the same analysis with BRD3811 as well. […]

MCF7 cells [3] = assay: L1000 gene expression profiling; type: cell-based, human; settings: for number of dose-responsive genes with altered expression: approximately 1,000 landmark genes
Experimental: Cells were incubated for 24 hours at 37° C. in a humidified incubator containing 5% CO2 before treatment.
These 1,000× stock solutions were first diluted (100-fold) in culture medium, and then the diluted compounds were transferred to the cell culture plates using CyBi-well vario 384-well tips (another 10-fold dilution). Ultimately, all compounds were diluted 1,000-fold to their desired serial concentrations with a final DMSO concentration of 0.1%. Treated cells were incubated for 24 hours prior to lysis. […] Cell lysate plates were sealed using a plate sealer, kept at room temperature for 30 minutes, and then frozen at −80° C. until L1000 gene expression profiling was performed.
In this study, we utilize L1000, a high-throughput, bead-based gene expression assay in which mRNA is extracted from cultured human cells treated with various chemical or genomic perturbagens (small molecules, gene knockdowns, or gene over-expression constructs) as previously described.^38 This mRNA is reverse-transcribed into first-strand cDNA. Gene specific probes containing barcodes and universal primer sites are annealed to the first strand cDNA. The probes are ligated to form a template for PCR. The template is PCR amplified with biotinylated-universal primers. The end products are biotinylated, fixed length, barcoded amplicons. The amplicons can then be mixed with Luminex beads that contain complementary barcodes to those encoded in each of the 1000 amplified landmark genes. These 1000 landmark genes were chosen as a reduced representation of the transcriptome and account for the majority of expression variation across many cellular contexts (Subramanian, et al., manuscript in preparation). These beads are then stained with fluorescent streptavidin-phycoerythrin (SAPE) and detected in 384-well plate format on a Luminex FlexMap flow cytometry-based scanner. The resulting readout is a measure of mean fluorescent intensity (MFI) for each landmark gene.

MCF-7 cells = assay: Global histone modification profiling; type: cell-based; settings: 10 μM for 24 h
Experimental: Each row represents a unique combination of histone modifications (as denoted by “Histone Mark”) and each column represents a treatment of MCF-7 cells with the compound indicated at 10 μM for 24 h. Each compound treatment was performed in biological duplicate (R1 and R2). Each cell is colored by the log2-fold change over the average of the DMSO replicates as denoted in the scale bar. Global histone profiles were obtained in a manner essentially equivalent to a previous report. (Kim, J. H., Yu, S., Chen, J. D., Kong, A. N. (2013) The nuclear cofactor RAC3/AIB1/SRC-3 enhances Nrf2 signaling by interacting with transactivation domains. Oncogene 32, 514-527).

HDAC8 = biological target: T1, HDAC8 (Homo sapiens, UniProt Q9BY41); assay: Caliper assay, biochemical HDAC IC50; settings: relative to PCI-34051
T1 construct: purchased BPS Bioscience
T1 sequence (Q9BY41 1-377): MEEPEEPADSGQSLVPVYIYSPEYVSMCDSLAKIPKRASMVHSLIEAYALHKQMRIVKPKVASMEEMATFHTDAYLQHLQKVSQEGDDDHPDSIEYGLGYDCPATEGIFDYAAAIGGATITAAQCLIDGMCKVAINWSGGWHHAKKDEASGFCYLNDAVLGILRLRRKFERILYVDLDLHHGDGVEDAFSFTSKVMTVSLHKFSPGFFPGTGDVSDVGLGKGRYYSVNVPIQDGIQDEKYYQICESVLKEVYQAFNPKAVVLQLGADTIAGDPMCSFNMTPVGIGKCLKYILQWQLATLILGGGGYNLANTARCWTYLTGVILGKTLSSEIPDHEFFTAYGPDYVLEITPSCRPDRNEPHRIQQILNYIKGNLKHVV
Experimental: The biochemical determination of HDAC ICsos for compounds was performed as described previously (Zhang, Y.-L. et al., Fluorescent substrates for determining lysine modifying enzyme activity, 2013, Patent Application WO 2013067391). All HDACs were purchased from BPS Bioscience. The substrates Broad Substrate A and Broad Substrate B were synthesized in house, but can be purchased from PerkinElmer (Product number CLS960006 and CLS960007, respectively). All other reagents were purchased from Sigma. Caliper EZ reader II system was used to collect all data. Compounds were tested in duplicate in a 12-point dose curve with 3-fold serial dilution starting from 33.33 μM. Purified HDACs were incubated with 2 μM carboxyfluorescein (FAM)-labeled acetylated or trifluoroacetylated peptide substrate (Broad Substrate A and B, respectively) and test compound for 60 min at room temperature, in an HDAC assay buffer that contained 50 mM HEPES (pH 7.4), 100 mM KCl, 0.01% BSA and 0.001% Tween-20. […] Substrate and product were separated electrophoretically and fluorescence intensity in the substrate and product peaks was determined and analyzed by Labchip EZ Reader. […] Inhibition of HDAC10 and 11 was not measured due to either low purity of the available recombinant HDAC enzyme preparations and/or lack of activity of the enzymes and low substrate conversion.

reduction in potency for inhibition of HDAC8 (HDAC8) | Compound | changes in histone acetylation status (MCF7 cells [1]) | p21 protein levels (western blot) (p21) | average percentile rank of similarity to p21 (CDKN1A) overexpression signature [2] | level of the p21 transcript (MCF7 cells [3]; dose range 0.04 μM-10 μM, 24 h) | number of dose-responsive genes with altered expression (MCF7 cells [3]; dose range 0.04 μM-10 μM) | histone acetylation (MCF-7 cells) | fold_change_at_10_uM CDKN1A (202284_s_at) (MCF7 cells [3]; MCF7, 10 uM, 24 h) | fold_change_at_10_uM CSNK1A1 (206562_s_at) (MCF7 cells [3]; MCF7, 10 uM, 24 h) | fold_change_at_10_uM DUSP3 (201536_at) (MCF7 cells [3]; MCF7, 10 uM, 24 h) | fold_change_at_10_uM ERBB2 (216836_s_at) (MCF7 cells [3]; MCF7, 10 uM, 24 h) | fold_change_at_10_uM GHR (205498_at) (MCF7 cells [3]; MCF7, 10 uM, 24 h) | fold_change_at_10_uM HMGA2 (208025_s_at) (MCF7 cells [3]; MCF7, 10 uM, 24 h) | fold_change_at_10_uM HMOX1 (203665_at) (MCF7 cells [3]; MCF7, 10 uM, 24 h) | fold_change_at_10_uM PRSS23 (202458_at) (MCF7 cells [3]; MCF7, 10 uM, 24 h) | fold_change_at_10_uM SLC25A46 (212833_at) (MCF7 cells [3]; MCF7, 10 uM, 24 h) | fold_change_at_10_uM TXNRD1 (201266_at) (MCF7 cells [3]; MCF7, 10 uM, 24 h) | fold_change_at_10_uM VAT1 (208626_s_at) (MCF7 cells [3]; MCF7, 10 uM, 24 h) | number of dose-responsive genes with altered expression (MCF7 cells [3]; dose range 0.04 M-10 M)
 | COc1ccc(Cn2ccc3ccc(C(=O)NO)cc32)cc1 [PCI-34051, reference compound] | did not observe any significant changes | increased p21 | 96 percentile | dose-dependent increase | 70 genes | not altered |  |  |  |  |  |  |  |  |  |  |  | 
1,000 fold | COc1ccc(Cn2ccc3cc(C)c(C(=O)NO)cc32)cc1 [BRD3811] |  |  | 66 percentile | increased the level of p21 transcript only at the highest dose tested |  |  | 1.956 | 1.623 | 1.586 | 1.614 | 0.7287 | 0.6073 | 2.067 | 0.6507 | 0.5635 | 1.298 | 1.389 | 11 genes
